Measured values published in patent US9227971B2, “Pyrazolo[1,5-a]pyrimidine compounds as mTOR inhibitors” (Merck Sharp & Dohme Corp., priority 2010, dated 2016).
Read-outs that look alike come from different tables or passages of the source.

Tests used:
[1] = test system: phosphorylated 4E-BP1 Thr37/46 (p4E-BP1 Thr37/46), mTORC1 activity, PC3 cells; experiment: mTOR target engagement assay, immunofluorescent cell-based, p4E-BP1 Thr37/46 readout (mTORC1 activity); settings: read-out: p4E-BP1 Thr37/46 IC50
In short: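 Seed PC3 cells overnight; treat with compound dilutions for ninety minutes at 37° C; fix with glyoxal and block; stain with anti-p4E-BP1 Thr37/46 overnight at 4° C, then fluorescent secondary; read fluorescence and fit IC50 against DMSO-only controls.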

[2] = test system: phosphorylated AKT Ser473 (pAKT S473), mTORC2 activity, PC3 cells; experiment: mTOR target engagement assay, immunofluorescent cell-based, pAKT S473 readout (mTORC2 activity)
In short: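 After blocking, cells were stained overnight at 4 °C with anti-pAKT S473 antibody, then a fluorescent secondary; inhibition was read as reduced fluorescence intensity.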

[3] = Homo sapiens, PC-3, PC3 cells, compound treatment ninety minutes at 37° C.
[4] = Homo sapiens, PC-3, Table 6-1, PC3 cells
[5] = Homo sapiens, PC-3, Table 3-1, PC3 cells
[6] = Homo sapiens, PC-3, Table 7-8, PC3 cells

With `COc1cc(F)cc2cc(-c3cnn4c(N)c(C(C)=O)c([C@@H]5C[C@H]6CC[C@@H](C5)N6C(=O)c5nnc[nH]5)nc34)cnc12` [Compound 1.1.182, 1-(5-((1R,3r,5S)-8-(4H-1,2,4-triazole-3-carbonyl)-8-azabicyclo[3.2.1]octan-3-yl)-7-amino-3-(6-fluoro-8-methoxyquinolin-3-yl)pyrazolo[1,5-a]pyrimidin-6-yl)ethanone] the IC50 [1, 3] was 1 to 100 nM and the IC50 [2, 3] was 1 to 100 nM.
In the case of `Nc1c(C2CC2)c([C@@H]2C[C@H]3CC[C@@H](C2)N3C(=O)CO)nc2c(-c3ccc(C4(O)CCC4)nc3)cnn12` [Compound 7.72, 1-((1R,3s,5S)-3-(7-amino-6-cyclopropyl-3-(6-(1-hydroxycyclobutyl)pyridin-3-yl)pyrazolo[1,5-a]pyrimidin-5-yl)-8-azabicyclo[3.2.1]octan-8-yl)-2-hydroxyethanone], the IC50 ([1]; Homo sapiens, PC-3, PC3 cells) is reported as 100 to 1000 nM and the IC50 ([2]; Homo sapiens, PC-3, PC3 cells) is reported as 100 to 1000 nM.
`CC(=O)c1c([C@@H]2C[C@H]3CC[C@@H](C2)N3C=O)nc2c(-c3ccc(-c4ncc[nH]4)nc3)cnn2c1N` [Compound 6.15, (1R,3s,5S)-3-(3-(6-(1H-imidazol-2-yl)pyridin-3-yl)-6-acetyl-7-aminopyrazolo[1,5-a]pyrimidin-5-yl)-8-azabicyclo[3.2.1]octane-8-carbaldehyde] showed an IC50 [1, 4] of 1 to 100 nM and an IC50 [2, 4] of 1 to 100 nM.
For `Cc1nnc(C(=O)N2[C@@H]3CC[C@H]2C[C@H](c2nc4c(-c5ccc(-c6ncc(C)s6)nc5)cnn4c(N)c2S(C)(=O)=O)C3)[nH]1` [Compound 3.184, ((1R,3s,5S)-3-(7-amino-6-(methylsulfonyl)-3-(6-(5-methylthiazol-2-yl)pyridin-3-yl)pyrazolo[1,5-a]pyrimidin-5-yl)-8-azabicyclo[3.2.1]octan-8-yl)(5-methyl-4H-1,2,4-triazol-3-yl)methanone], the IC50 [1, 5] was 1 to 100 nM and the IC50 [2, 5] was 1 to 100 nM.
Compound `CC(=O)c1c(C2CC3CS(=O)(=O)CC(C2)N3C(=O)c2nc[nH]n2)nc2c(-c3ccc(-c4ccccc4)nc3)cnn2c1N` (stereo not drawn) [Compound 8.38, endo/exo-7-[6-acetyl-7-amino-3-(6-phenyl-3-pyridinyl)pyrazolo[1,5-a]pyrimidin-5-yl]-9-(4h-1,2,4-triazol-3-ylcarbonyl)-3-thia-9-azabicyclo[3.3.1]nonane, 3,3-dioxide] has an IC50 ([1]; Homo sapiens, PC-3, PC3 cells) of 100 to 1000 nM and an IC50 ([2]; Homo sapiens, PC-3, PC3 cells) of 100 to 1000 nM.
`COc1ccc(-c2ccc(-c3cnn4c(N)c(C(C)=O)c([C@@H]5C[C@H]6CC[C@@H](C5)N6C(=O)c5nnc[nH]5)nc34)cn2)c(F)c1F` [Compound 1.1.65, 1-(5-((1R,3s,5S)-8-(4H-1,2,4-triazole-3-carbonyl)-8-azabicyclo[3.2.1]octan-3-yl)-7-amino-3-(6-(2,3-difluoro-4-methoxyphenyl)pyridin-3-yl)pyrazolo[1,5-a]pyrimidin-6-yl)ethanone] showed an IC50 [1, 3] of 1 to 100 nM and an IC50 [2, 3] of 1 to 100 nM.
Work on `CS(=O)(=O)c1c([C@@H]2C[C@H]3CC[C@@H](C2)N3C(=O)CO)nc2c(-c3ccc(C4(O)CCCC4)nc3)cnn2c1N` [Compound 7.47, 1-((1R,3s,5S)-3-(7-amino-3-(6-(1-hydroxycyclopentyl)pyridin-3-yl)-6-(methylsulfonyl)pyrazolo [1,5-a]pyrimidin-5-yl)-8-azabicyclo[3.2.1]octan-8-yl)-2-hydroxyethanone] yielded an IC50 [1, 6] of 100 to 1000 nM and an IC50 [2, 6] of 100 to 1000 nM.
In the case of `COc1ccc(-c2ccc(-c3cnn4c(N)c(S(C)(=O)=O)c([C@@H]5C[C@H]6CC[C@@H](C5)N6C(=O)c5nnc(N)[nH]5)nc34)cn2)cc1F` [Compound 3.100, ((1R,3s,5S)-3-(7-amino-3-(6-(3-fluoro-4-methoxyphenyl)pyridin-3-yl)-6-(methylsulfonyl)pyrazolo[1,5-a]pyrimidin-5-yl)-8-azabicyclo[3.2.1]octan-8-yl)(5-amino-4H-1,2,4-triazol-3-yl)methanone], the IC50 [1, 5] is reported as 1 to 100 nM and the IC50 [2, 5] is reported as 1 to 100 nM.
`CC(=O)c1c(C2CC3CCC(C2)N3C(=O)c2nn[nH]n2)nc2c(-c3ccc(-c4ccccc4)nc3)cnn2c1N` [Compound 1.1.24, 1-(5-((1R,3s,5S)-8-(1H-tetrazole-5-carbonyl)-8-azabicyclo[3.2.1]octan-3-yl)-7-amino-3-(6-phenylpyridin-3-yl)pyrazolo[1,5-a]pyrimidin-6-yl)ethanone] gave an IC50 [1, 3] of 1000 to 10000 nM and an IC50 [2, 3] of 1000 to 10000 nM.
Work on `Cn1cc2cc(-c3ccc(-c4cnn5c(N)c(S(C)(=O)=O)c([C@@H]6C[C@H]7CC[C@@H](C6)N7C(=O)c6nnc[nH]6)nc45)cn3)ccc2n1` [Compound 3.57, ((1R,3s,5S)-3-(7-amino-3-(6-(2-methyl-2H-indazol-5-yl)pyridin-3-yl)-6-(methylsulfonyl)pyrazolo[1,5-a]pyrimidin-5-yl)-8-azabicyclo[3.2.1]octan-8-yl)(4H-1,2,4-triazol-3-yl)methanone] yielded an IC50 ([1]; Table 3-1, PC3 cells) of 1 to 100 nM and an IC50 ([2]; Table 3-1, PC3 cells) of 1 to 100 nM.
`CS(=O)(=O)c1c([C@@H]2C[C@H]3CC[C@@H](C2)N3C(=O)c2nnc[nH]2)nc2c(-c3ccc(-c4ccccn4)nc3)cnn2c1N` [Compound 3.102, ((1R,3s,5S)-3-(3-(2,2′-bipyridin-5-yl)-7-amino-6-(methylsulfonyl)pyrazolo[1,5-a]pyrimidin-5-yl)-8-azabicyclo[3.2.1]octan-8-yl)(4H-1,2,4-triazol-3-yl)methanone] showed an IC50 [1, 5] of 1 to 100 nM and an IC50 [2, 5] of 1 to 100 nM.
Compound `COc1ccc(-c2ccc(-c3cnn4c(N)c(C(C)=O)c([C@@H]5C[C@H]6CC[C@@H](C5)N6C(=O)CO)nc34)cn2)cc1CO` [Compound 1.1.36, 1-((1R,3s,5S)-3-(6-acetyl-7-amino-3-(6-(3-(hydroxymethyl)-4-methoxyphenyl)pyridin-3-yl)pyrazolo[1,5-a]pyrimidin-5-yl)-8-azabicyclo[3.2.1]octan-8-yl)-2-hydroxyethanone] has an IC50 [1, 3] of 1 to 100 nM and an IC50 [2, 3] of 1 to 100 nM.
`Cc1cnc(-c2ccc(-c3cnn4c(N)c(S(C)(=O)=O)c([C@@H]5C[C@H]6CC[C@@H](C5)N6C(=O)C(O)C(F)(F)F)nc34)cn2)s1` (stereo partly drawn) [Compound 3.187, 1-((1R,3s,5S)-3-(7-amino-6-(methylsulfonyl)-3-(6-(5-methylthiazol-2-yl)pyridin-3-yl)pyrazolo[1,5-a]pyrimidin-5-yl)-8-azabicyclo[3.2.1]octan-8-yl)-3,3,3-trifluoro-2-hydroxypropan-1-one] was tested, and the IC50 [1, 5] was 1000 to 10000 nM and the IC50 [2, 5] was 1000 to 10000 nM.
Work on `CC(=O)c1c([C@@H]2C[C@H]3CC[C@@H](C2)N3C(=O)c2nnc(N)[nH]2)nc2c(-c3ccc(-n4cc(C)cn4)nc3)cnn2c1N` [Compound 1.1.130, 1-(7-amino-5-((1R,3s,5S)-8-(5-amino-4H-1,2,4-triazole-3-carbonyl)-8-azabicyclo[3.2.1]octan-3-yl)-3-(6-(4-methyl-1H-pyrazol-1-yl)pyridin-3-yl)pyrazolo[1,5-a]pyrimidin-6-yl)ethanone] yielded an IC50 [1, 3] of 1 to 100 nM and an IC50 [2, 3] of 1 to 100 nM.
`CC(=O)c1c([C@@H]2C[C@H]3CC[C@@H](C2)N3C(=O)[C@@H](C)O)nc2c(-c3ccc(-c4ncc[nH]4)nc3)cnn2c1N` [Compound 6.12, (R)-1-((1R,3S,5S)-3-(3-(6-(1H-imidazol-2-yl)pyridin-3-yl)-6-acetyl-7-aminopyrazolo[1,5-a]pyrimidin-5-yl)-8-azabicyclo[3.2.1]octan-8-yl)-2-hydroxypropan-1-one] gave an IC50 [1, 4] of 1 to 100 nM and an IC50 [2, 4] of 1 to 100 nM.
`CS(=O)(=O)c1c([C@@H]2C[C@H]3CC[C@@H](C2)N3C(=O)c2cnn[nH]2)nc2c(-c3ccc(-c4ccccc4)nc3)cnn2c1N` [Compound 3.3, ((1R,3s,5S)-3-(7-amino-6-(methylsulfonyl)-3-(6-phenylpyridin-3-yl)pyrazolo[1,5-a]pyrimidin-5-yl)-8-azabicyclo[3.2.1]octan-8-yl)(1H-1,2,3,-triazol-5-yl)methanone] showed an IC50 [1, 5] of 100 to 1000 nM and an IC50 [2, 5] of 1 to 100 nM.
`CC(=O)c1c([C@@H]2C[C@H]3CC[C@@H](C2)N3C(=O)CO)nc2c(-c3ccc(-c4ncc[nH]4)cc3)cnn2c1N` [Compound 6.42, 1-((1R,3s,5S)-3-(3-(4-(1H-imidazol-2-yl)phenyl)-6-acetyl-7-aminopyrazolo[1,5-a]pyrimidin-5-yl)-8-azabicyclo[3.2.1]octan-8-yl)-2-hydroxyethanone] showed an IC50 [1, 4] of 1 to 100 nM and an IC50 [2, 4] of 1 to 100 nM.
Work on `CC(=O)c1c([C@@H]2C[C@H]3CC[C@@H](C2)N3C(=O)c2nnc[nH]2)nc2c(-c3ccc(C4(O)COC4)nc3)cnn2c1N` [Compound 7.45, 1-(5-((1R,3s,5S)-8-(4H-1,2,4-triazole-3-carbonyl)-8-azabicyclo[3.2.1]octan-3-yl)-7-amino-3-(6-(3-hydroxyoxetan-3-yl)pyridin-3-yl)pyrazolo[1,5-a]pyrimidin-6-yl)ethanone] yielded an IC50 [1, 6] of 100 to 1000 nM and an IC50 [2, 6] of 100 to 1000 nM.
For `Cn1cnc(-c2ccc(-c3cnn4c(N)cc([C@@H]5C[C@H]6CC[C@@H](C5)N6C(=O)c5nnc[nH]5)nc34)cn2)n1` [Compound 2.10, ((1R,3s,5S)-3-(7-amino-3-(6-(1-methyl-1H-1,2,4-triazol-3-yl)pyridin-3-yl)pyrazolo[1,5-a]pyrimidin-5-yl)-8-azabicyclo[3.2.1]octan-8-yl)(4H-1,2,4-triazol-3-yl)methanone], the IC50 [1, 3] was > 10000 nM and the IC50 [2, 3] was > 10000 nM.
